# Results: patent US20070073039A1, “Peptides that inhibit viral infections” (priority 2005, published 2007)
# Like-named read-outs stand apart in the source and are kept apart here.
# Experiments:
# [1] = system: HCV; test: Median effective concentration (EC50) by intracellular HCV RNA RT-QPCR; assay type: cell-based, Hepatitis C virus (JFH-1); settings: Huh-7.5.1 cells, MOI 0.1
# Method: (§1) To determine the median effective concentration (EC50) of peptide #1, peptide stock solution (3.6 mM in DMSO) was serially 2-fold diluted in DMSO. An aliquot of peptide from each dilution was then diluted 1:100 in complete growth medium and mixed with equal volume of virus supernatant. The virus-peptide mixture was then used to infect Huh-7.5.1 cells (MOI=0.1). After adsorption for 4 hours at 37° C., the virus-peptide inoculum was removed. The cells were washed 2 times, overlaid with 120 μL fresh growth medium and incubated at 37° C. for 3 days. Cells were lysed and subjected to RNA analysis. The HCV RNA transcript level was measured by real time RT-QPCR and normalized to cellular GAPDH levels. The inhibition of HCV infection was calculated by comparing the intracellular HCV RNA transcript between the peptide treatment and solvent control.
# as §1, with “(EC50) of the L- and D-form” for “(EC50)”, “serially diluted” for “serially”, “2-fold” for “2-fold diluted”
# [2] = Serum stability of L- and D-type peptides (10% FBS, 37° C., antiviral readout); assay type: in vitro ADME; settings: within 1 hour
# Excerpt: Peptides composed of L-amino acids are susceptible to proteolysis, which could shorten their half-life and, thus, their biological activity. To examine this possibility and to determine if specific peptide-viral protein interactions mediate antiviral activity, peptide 1 was synthesized using all D-amino acids, purified to >95% homogeneity, and its antiviral activity and serum stability were compared with a similarly pure preparation of the L-type version of peptide #1. Both L- and D-type peptides were diluted 1:100 in complete growth medium (10% FBS) and mixed with an equal volume of viral supernatant.
# In addition, to compare the serum stability of the L- and D-type peptides, the diluted peptide was incubated at 37° C. for 1 hour, 2 hours and 4 hours before mixing with viral supernatant. The virus-peptide mixture was then used to infect Huh-7.5.1 cells (MOI=0.1). After adsorption for 4 hours at 37° C., the virus-peptide inoculum was removed. The cells were washed 2 times, overlaid with 120 μL fresh growth medium and incubated at 37° C. for 3 days. Cells were lysed and subjected to RNA analysis. The HCV RNA transcript level was measured by real time RT-QPCR and normalized to cellular GAPDH levels. […] Thus, in addition to low immunogenicity and possible oral bioavailability, peptides composed of D-amino acids have the potential therapeutic advantage of enhanced serum stability.
# [3] = MTT cytotoxicity assay; assay type: cell-based; settings: human, hepatocyte cell lines, read-out: LD50 (MTT cytotoxicity)
# Method: Peptide cytotoxicity was measured by MTT cytotoxicity assay based on the protocol provided in the ATCC MTT assay kit (Cat #30-1010K). In brief, 5000-10,000 cells were seeded per well in a 96 well plate. Following overnight growth, 100 μL fresh medium plus 20 μL of 2-fold serially diluted peptide was added. Media without peptides was added to at least 3 wells as untreated controls. The cells were then incubated for 72 hours at 37° C., 5% CO2. After this incubation, 1/10 volume of MTT solution ([…] in PBS) was added to each well, and the cells were returned to the incubator. Two hours later, the medium was removed, 150 μL DMSO was added to dissolve the purple precipitate formazan, and the plate was shaken at 150 rpm for 10 minutes. Absorbance at 570 nm less background at 670 nm is a reliable measure of […]. Cytotoxicity (LD50) of individual peptides was defined as the peptide concentration that caused 50% cell death.
# [4] = Preliminary in vivo toxicity in mice
# Method: As a preliminary measurement of the in vivo cytotoxicity of the peptides 1, 2 and 3 (see Table 4) a group of three mice (BALB/c mice, 7 weeks old, about 23 g) were each injected with 92 μg L-type peptide 1 ( ˜4 mg/kg) in 200 μL PBS (spun 14,000 rpm for 3 minutes before injection). In the control group, each of three mice was given 200 μL PBS containing 5% DMSO. The mice were monitored for acute toxicity during the first 3 hours after injection.
# No change in appearance, activity or behavior was observed. The mice were then weighed on days 0, 3, 5, 7 and 10. Peptide-injected mice gained weight at the same rate as the controls.
# [5] = system: Dengue-2; test: Dengue-2 infection of Vero cells, Intracellular FACS Assay; assay type: cell-based; settings: 20 μM
# Method: Intracellular FACS Assay: Vero cells were seeded for 24 h pre-infection in 6-well plates. Cells were exposed to Dengue-2 in the presence of increasing concentrations of peptide (or DMSO as control). Viruses and peptide were washed away 2 h post-infection. Cells were taken for intracellular staining 3 days post-infection. Cells were stained with appropriate isotype control, Dengue Env, Dengue capsid or tubulin antibodies. Cells were analyzed by FACS.
# [6] = system: Huh-7.5.1 cells; test: Toxicity on Huh-7.5.1 cells incubated with peptides
# [7] = system: JFH-1 virus; test: Interferon treatment of Huh-7.5.1 cells before JFH-1 infection; assay type: cell-based, Hepatitis C virus (JFH-1); settings: 5, 50 and 500 IU/mL; Huh-7.5.1, MOI 0.3; 3 days
# Method: The viral inoculum was removed 4 hours later and the cells were further cultured with interferon for 3 days. At that time cells were harvested, RNA was isolated and analyzed by real-time RT-PCR to determine the intracellular HCV RNA levels. Bars represent intracellular HCV RNA levels expressed as a % of the levels obtained in the control infections.
# Interferon treatment. […] The inoculum was removed after 3 hours of incubation at 37° C., and fresh DMEM supplemented with the indicated doses of IFN was added to the cells. The efficiency of the infection was monitored 72 hours later by quantitative RT-PCR.
# [8] = system: HCV; test: HCV focus reduction assay; assay type: cell-based, Hepatitis C virus (JFH-1); settings: 72 h; working concentration 18.4-27.5 μM per peptide; Mock 51
# Procedure, shortened: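 Huh-7.5.1 cells infected with 50 ffu HCV premixed with peptide (~20 μM screen; derivatives at 18, 6 and 2 μM), 4 h adsorption at 37 °C, then washed and cultured 3 days. Foci immunostained for NS5A and counted by fluorescence microscopy. Values are % of mock with 0.5% DMSO solvent.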
# [9] = system: HCV; test: Intracellular HCV RNA by real time RT-QPCR after infection of Huh-7.5.1 cells with and without peptide; assay type: cell-based, Hepatitis C virus (JFH-1); settings: working concentration 18.4-27.5 μM per peptide
# [10] = system: Dengue-2; test: Dengue-2 infection of Vero cells, Enzyme-linked Immunosorbent Assay; assay type: cell-based; settings: for Inhibition of Dengue Infection, α-Capsid 9A7 / Inhibition of Dengue Infection, α-DEN ENV: Vero cells, 5 days
# Method: Enzyme-linked Immunosorbent Assay. Vero cells (80,000 cells/well/ml) were seeded for 24 h pre-infection in 24-well plates. Cells were exposed to Dengue-2 (derived from Vero cells) in the presence of increasing concentration of peptide (or DMSO as control). Viruses and peptide were not removed (cells were not washed) throughout the incubation. Infection was analyzed after 5 days using ELISA that measured the amounts of Dengue-2 capsid released in the supernatant of infected Vero cells.
# [11] = system: Dengue-2; test: Dengue-2 Fluorescent Foci Assay; assay type: cell-based; settings: FIG. 19; 20 μM
# Method: Fluorescent Foci Assay: Vero cells were seeded for 24 h pre-infection in 96-well plates. Cells were exposed to Dengue-2 in the presence of increasing concentrations of peptide (or DMSO as control). Viruses and peptide were washed away 2 h post-infection. Supernatants were collected every 3 days post-infection and added to fresh Vero cells for fluorescent foci assay. Newly infected Vero cells were fixed with 4% formaldehyde after 3 days. Cells were then stained with Dengue Env antibodies followed by Alexa-fluor dye conjugated secondary antibodies. Foci were counted using a fluorescent microscope.
# Fluorescent Foci Assay. Vero cells were seeded for 24 hours pre-infection in 96-well plates. Cells were exposed to Dengue-2 in the presence of increasing concentrations of peptide (or DMSO as control). Viruses and peptide were washed away 2 hours post-infection. Supernatants were collected every 3 days post-infection and added to fresh Vero cells for fluorescent foci assay. Newly infected Vero cells were fixed with 4% formaldehyde after 3 days. Cells were then stained with antibodies directed to the Dengue Envelop protein followed by Alexa-fluor dye conjugated secondary antibodies. Foci were counted using a fluorescent microscope.
# [12] = system: Dengue-2; test: Dengue-2 infection of Vero cells, Enzyme-linked Immunosorbent Assay; assay type: cell-based; settings: 1.25 μM, 5 days
molecule,measurement,setting,value
CC[C@H](C)[C@H](NC(=O)[C@H](CC(=O)O)NC(=O)[C@H](CCCNC(=N)N)NC(=O)[C@H](CC(C)C)NC(=O)[C@H](Cc1c[nH]c2ccccc12)NC(=O)[C@@H](N)CO)C(=O)N[C@@H](Cc1c[nH]c2ccccc12)C(=O)N[C@@H](CC(=O)O)C(=O)N[C@@H](Cc1c[nH]c2ccccc12)C(=O)N[C@H](C(=O)N[C@@H](CS)C(=O)N[C@@H](CCC(=O)O)C(=O)N[C@H](C(=O)N[C@@H](CC(C)C)C(=O)N[C@@H](CO)C(=O)N[C@@H](CC(=O)O)C(=O)N[C@@H](Cc1ccccc1)C(=O)N[C@@H](CCCCN)C(=O)O)C(C)C)[C@@H](C)CC [Peptide 1],EC50,"[1]; FIG. 12B-C, 3 days, read-out: EC50 of the L- and D-forms of peptide 1",~1000 nM
same,EC50,"[1]; peptide with virus 4 hours, HCV RNA after 3 days, listed as peptide 1, read-out: EC50 against HCV infection",300 nM
same,EC50,"[1]; peptide with virus 4 hours, HCV RNA after 3 days, listed as peptide #1, read-out: EC50 against HCV infection",~300 nM
same,EC50,"[1]; peptide with virus 4 hours, HCV RNA after 3 days, read-out: EC50 against HCV infection",289 nM
same,Antiviral activity lost on incubation in 10% FBS at 37° C.,[2],approximately 95%
same,CC50 at 72 h,[3]; with FBS,26700 nM
same,CC50 at 72 h,[3]; without FBS,3800 nM
same,In vivo toxicity observation,"[4]; 92 μg ( ˜4 mg/kg) in 200 μL PBS, acute toxicity first 3 hours, weight to day 10","Peptides 1, 2 and 3 are Nontoxic in C57BL/6 Mice"
same,Weight(g) (d.0),"[4]; day 0, ˜4 mg/kg injected",22.2 g
same,Weight(g) (d.3),[4]; day 3,22.3 g
same,Weight(g) (d.5),[4]; day 5,22.8 g
same,Weight(g) (d.7),[4]; day 7,23.1 g
same,Weight(g) (d.10),[4]; day 10,23.5 g
same,% of Dead cells PI,"[5]; propidium iodide staining, Vero cells 3 days post-infection",1.88%
same,Evidence of toxicity / cytotoxicity,[6],without evidence of cytotoxicity
"IFNγ: human IFNγ (PBL Biomedical Lab, Piscataway, N.J.)",Inhibition of HCV infection by interferons,[7],efficiently inhibit HCV infection
LRDIWDWICEVLSDFK [^N-16mer],Focus Reduction (72 h),[8],125
same,Fold Inhibition on HCV RNA (24 h),[9]; 24 h,0.7 fold
same,Fold Inhibition on HCV RNA (72 h),[9]; 72 h,0.6 fold
same,"Inhibition of Dengue Infection, α-Capsid 9A7",[10]; 1.25 μM,12.82%
same,"Inhibition of Dengue Infection, α-Capsid 9A7",[10]; 5 μM,16.01%
same,"Inhibition of Dengue Infection, α-DEN ENV",[10]; 5 μM,33.64%
same,"Inhibition of Dengue Infection, α-Capsid 9A7",[10]; 20 μM,82.2%
same,"Inhibition of Dengue Infection, α-DEN ENV",[10]; 20 μM,74.83%
same,Inhibition of Dengue viral infection as detected by ELISA,"[10]; FIG. 17, 20 μM",about 84%
same,Inhibition of Dengue viral infection as detected by FACS,[5]; FIG. 18,about 80%
same,Inhibition of Dengue viral infection by immunofluorescence assay,[11],about 90%
same,"Inhibition of Dengue Infection, α-DEN ENV",[12],10.24%
